Test: xn = mol fraction of the nth substance listed
Conditions: 100 kPa, Liquid; for viscosity: Falling or rolling sphere viscometry; for mass density: Vibrating tube method

CCCCCCCCCCC [undecane] + CCCCCO
Conditions | mass density [kg/m3] | viscosity [mPa·s]
283.15 K, x1 = 0.0999 | 808.13 | 4.269
283.15 K, x1 = 0.2 | 796.68 | 3.406
283.15 K, x1 = 0.3026 | 786.76 | 2.731
283.15 K, x1 = 0.4001 | 778.65 | 2.21
283.15 K, x1 = 0.5022 | 771.41 | 1.884
283.15 K, x1 = 0.5976 | 765.49 | 1.694
283.15 K, x1 = 0.6984 | 760.02 | 1.551
283.15 K, x1 = 0.801 | 755.27 | 1.452
283.15 K, x1 = 0.8822 | 751.87 | 1.413
283.15 K, x1 = 1 | 747.78 | 1.371
288.15 K, x1 = 0.0999 | 804.49 | 3.679
288.15 K, x1 = 0.2 | 792.98 | 2.958
288.15 K, x1 = 0.3026 | 783.04 | 2.39
288.15 K, x1 = 0.4001 | 774.92 | 1.945
288.15 K, x1 = 0.5022 | 767.66 | 1.689
288.15 K, x1 = 0.5976 | 761.74 | 1.535
288.15 K, x1 = 0.6984 | 756.3 | 1.419
288.15 K, x1 = 0.801 | 751.55 | 1.335
288.15 K, x1 = 0.8822 | 748.15 | 1.287
288.15 K, x1 = 1 | 744.06 | 1.249
293.15 K, x1 = 0.0999 | 800.81 | 3.187
293.15 K, x1 = 0.2 | 789.27 | 2.58
293.15 K, x1 = 0.3026 | 779.3 | 2.103
293.15 K, x1 = 0.4001 | 771.17 | 1.743
293.15 K, x1 = 0.5022 | 763.91 | 1.529
293.15 K, x1 = 0.5976 | 757.99 | 1.404
293.15 K, x1 = 0.6984 | 752.55 | 1.308
293.15 K, x1 = 0.801 | 747.81 | 1.236
293.15 K, x1 = 0.8822 | 744.41 | 1.176
293.15 K, x1 = 1 | 740.35 | 1.145
298.15 K, x1 = 0.0999 | 797.12 | 2.777
298.15 K, x1 = 0.2 | 785.54 | 2.26
298.15 K, x1 = 0.3026 | 775.54 | 1.862
298.15 K, x1 = 0.4001 | 767.4 | 1.571
298.15 K, x1 = 0.5022 | 760.13 | 1.395
298.15 K, x1 = 0.5976 | 754.22 | 1.295
298.15 K, x1 = 0.6984 | 748.78 | 1.214
298.15 K, x1 = 0.801 | 744.05 | 1.153
298.15 K, x1 = 0.8822 | 740.67 | 1.08
298.15 K, x1 = 1 | 736.64 | 1.062
303.15 K, x1 = 0.0999 | 793.4 | 2.428
303.15 K, x1 = 0.2 | 781.78 | 1.995
303.15 K, x1 = 0.3026 | 771.75 | 1.656
303.15 K, x1 = 0.4001 | 763.6 | 1.428
303.15 K, x1 = 0.5022 | 756.32 | 1.283
303.15 K, x1 = 0.5976 | 750.42 | 1.202
303.15 K, x1 = 0.6984 | 745 | 1.095
303.15 K, x1 = 0.801 | 740.28 | 1.026
303.15 K, x1 = 0.8822 | 736.92 | 0.999
303.15 K, x1 = 1 | 732.93 | 0.982
308.15 K, x1 = 0.0999 | 789.65 | 2.136
308.15 K, x1 = 0.2 | 777.98 | 1.768
308.15 K, x1 = 0.3026 | 767.93 | 1.481
308.15 K, x1 = 0.4001 | 759.77 | 1.29
308.15 K, x1 = 0.5022 | 752.5 | 1.153
308.15 K, x1 = 0.5976 | 746.6 | 1.062
308.15 K, x1 = 0.6984 | 741.2 | 0.998
308.15 K, x1 = 0.801 | 736.49 | 0.951
308.15 K, x1 = 0.8822 | 733.14 | 0.922
308.15 K, x1 = 1 | 729.23 | 0.91
313.15 K, x1 = 0.0999 | 785.86 | 1.887
313.15 K, x1 = 0.2 | 774.15 | 1.572
313.15 K, x1 = 0.3026 | 764.08 | 1.33
313.15 K, x1 = 0.4001 | 755.91 | 1.17
313.15 K, x1 = 0.5022 | 748.64 | 1.058
313.15 K, x1 = 0.5976 | 742.76 | 0.976
313.15 K, x1 = 0.6984 | 737.36 | 0.924
313.15 K, x1 = 0.801 | 732.67 | 0.881
313.15 K, x1 = 0.8822 | 729.34 | 0.859
313.15 K, x1 = 1 | 725.53 | 0.847
318.15 K, x1 = 0.0999 | 782.03 | 1.675
318.15 K, x1 = 0.2 | 770.28 | 1.409
318.15 K, x1 = 0.3026 | 760.19 | 1.2
318.15 K, x1 = 0.4001 | 752.02 | 1.065
318.15 K, x1 = 0.5022 | 744.75 | 0.972
318.15 K, x1 = 0.5976 | 738.88 | 0.902
318.15 K, x1 = 0.6984 | 733.51 | 0.856
318.15 K, x1 = 0.801 | 728.83 | 0.819
318.15 K, x1 = 0.8822 | 725.53 | 0.801
318.15 K, x1 = 1 | 721.82 | 0.79
323.15 K, x1 = 0.0999 | 778.15 | 1.468
323.15 K, x1 = 0.2 | 766.37 | 1.266
323.15 K, x1 = 0.3026 | 756.27 | 1.087
323.15 K, x1 = 0.4001 | 748.09 | 0.974
323.15 K, x1 = 0.5022 | 740.84 | 0.896
323.15 K, x1 = 0.5976 | 734.98 | 0.836
323.15 K, x1 = 0.6984 | 729.62 | 0.796
323.15 K, x1 = 0.801 | 724.97 | 0.764
323.15 K, x1 = 0.8822 | 721.69 | 0.748
323.15 K, x1 = 1 | 718.11 | 0.74
328.15 K, x1 = 0.0999 | 774.23 | 1.336
328.15 K, x1 = 0.2 | 762.42 | 1.142
328.15 K, x1 = 0.3026 | 752.3 | 0.989
328.15 K, x1 = 0.4001 | 744.13 | 0.895
328.15 K, x1 = 0.5022 | 736.88 | 0.828
328.15 K, x1 = 0.5976 | 731.04 | 0.776
328.15 K, x1 = 0.6984 | 725.7 | 0.742
328.15 K, x1 = 0.801 | 721.07 | 0.714
328.15 K, x1 = 0.8822 | 717.84 | 0.702
328.15 K, x1 = 1 | 714.39 | 0.692
333.15 K, x1 = 0.0999 | 770.26 | 1.2
333.15 K, x1 = 0.2 | 758.42 | 1.035
333.15 K, x1 = 0.3026 | 748.29 | 0.903
333.15 K, x1 = 0.4001 | 740.12 | 0.825
333.15 K, x1 = 0.5022 | 732.89 | 0.767
333.15 K, x1 = 0.5976 | 727.07 | 0.723
333.15 K, x1 = 0.6984 | 721.76 | 0.694
333.15 K, x1 = 0.801 | 717.15 | 0.67
333.15 K, x1 = 0.8822 | 713.96 | 0.659
333.15 K, x1 = 1 | 710.68 | 0.651
338.15 K, x1 = 0.0999 | 766.24 | 1.082
338.15 K, x1 = 0.2 | 754.37 | 0.94
338.15 K, x1 = 0.3026 | 744.23 | 0.827
338.15 K, x1 = 0.4001 | 736.07 | 0.763
338.15 K, x1 = 0.5022 | 728.86 | 0.714
338.15 K, x1 = 0.5976 | 723.06 | 0.675
338.15 K, x1 = 0.6984 | 717.77 | 0.652
338.15 K, x1 = 0.801 | 713.2 | 0.63
338.15 K, x1 = 0.8822 | 710.06 | 0.621
338.15 K, x1 = 1 | 706.95 | 0.615
343.15 K, x1 = 0.0999 | 762.15 | 0.979
343.15 K, x1 = 0.2 | 750.25 | 0.857
343.15 K, x1 = 0.3026 | 740.12 | 0.76
343.15 K, x1 = 0.4001 | 731.98 | 0.708
343.15 K, x1 = 0.5022 | 724.77 | 0.666
343.15 K, x1 = 0.5976 | 719 | 0.633
343.15 K, x1 = 0.6984 | 713.75 | 0.613
343.15 K, x1 = 0.801 | 709.22 | 0.594
343.15 K, x1 = 0.8822 | 706.13 | 0.587
343.15 K, x1 = 1 | 703.22 | 0.58
348.15 K, x1 = 0.0999 | 758.01 | 0.889
348.15 K, x1 = 0.2 | 746.09 | 0.784
348.15 K, x1 = 0.3026 | 735.95 | 0.701
348.15 K, x1 = 0.4001 | 727.83 | 0.659
348.15 K, x1 = 0.5022 | 720.65 | 0.624
348.15 K, x1 = 0.5976 | 714.91 | 0.595
348.15 K, x1 = 0.6984 | 709.7 | 0.578
348.15 K, x1 = 0.801 | 705.21 | 0.561
348.15 K, x1 = 0.8822 | 702.19 | 0.556
348.15 K, x1 = 1 | 699.47 | 0.549
353.15 K, x1 = 0.0999 | 753.8 | 0.81
353.15 K, x1 = 0.2 | 741.87 | 0.72
353.15 K, x1 = 0.3026 | 731.74 | 0.649
353.15 K, x1 = 0.4001 | 723.64 | 0.615
353.15 K, x1 = 0.5022 | 716.49 | 0.585
353.15 K, x1 = 0.5976 | 710.78 | 0.56
353.15 K, x1 = 0.6984 | 705.61 | 0.545
353.15 K, x1 = 0.801 | 701.17 | 0.531
353.15 K, x1 = 0.8822 | 698.22 | 0.528
353.15 K, x1 = 1 | 695.72 | 0.522
358.15 K, x1 = 0.0999 | 749.51 | 0.744
358.15 K, x1 = 0.2 | 737.58 | 0.663
358.15 K, x1 = 0.3026 | 727.46 | 0.602
358.15 K, x1 = 0.4001 | 719.38 | 0.577
358.15 K, x1 = 0.5022 | 712.26 | 0.551
358.15 K, x1 = 0.5976 | 706.59 | 0.528
358.15 K, x1 = 0.6984 | 701.47 | 0.517
358.15 K, x1 = 0.801 | 697.1 | 0.504
358.15 K, x1 = 0.8822 | 694.22 | 0.502
358.15 K, x1 = 1 | 691.96 | 0.497
363.15 K, x1 = 0.0999 | 745.17 | 0.68
363.15 K, x1 = 0.2 | 733.23 | 0.614
363.15 K, x1 = 0.3026 | 723.13 | 0.56
363.15 K, x1 = 0.4001 | 715.08 | 0.542
363.15 K, x1 = 0.5022 | 708 | 0.519
363.15 K, x1 = 0.5976 | 702.37 | 0.5
363.15 K, x1 = 0.6984 | 697.3 | 0.49
363.15 K, x1 = 0.801 | 692.99 | 0.48
363.15 K, x1 = 0.8822 | 690.22 | 0.48
363.15 K, x1 = 1 | 688.18 | 0.475

Source: the NIST ThermoML archive (doi:10.1021/acs.jced.6b00121)
